The numbers were not newly measured in patent publication US6534540B2, “Combination and method of treatment of cancer utilizing a COX-2 inhibitor and a 3-hydroxy-3-methylglutaryl-coenzyme-a (HMG-CoA) reductase inhibitor” (priority 2000, dated 2003), which cites them from elsewhere.

Data set [1] deals with prostate cancer specimen. The conditions noted are these: mice, prostate cancer specimen in vivo.
Data set [2] relates to Prostate Cancer Cell Line LNCaP.
For data set [3], the target named is T1, COX-2 (Mus musculus, UniProt Q05769).
T1 sequence (Q05769 18-604): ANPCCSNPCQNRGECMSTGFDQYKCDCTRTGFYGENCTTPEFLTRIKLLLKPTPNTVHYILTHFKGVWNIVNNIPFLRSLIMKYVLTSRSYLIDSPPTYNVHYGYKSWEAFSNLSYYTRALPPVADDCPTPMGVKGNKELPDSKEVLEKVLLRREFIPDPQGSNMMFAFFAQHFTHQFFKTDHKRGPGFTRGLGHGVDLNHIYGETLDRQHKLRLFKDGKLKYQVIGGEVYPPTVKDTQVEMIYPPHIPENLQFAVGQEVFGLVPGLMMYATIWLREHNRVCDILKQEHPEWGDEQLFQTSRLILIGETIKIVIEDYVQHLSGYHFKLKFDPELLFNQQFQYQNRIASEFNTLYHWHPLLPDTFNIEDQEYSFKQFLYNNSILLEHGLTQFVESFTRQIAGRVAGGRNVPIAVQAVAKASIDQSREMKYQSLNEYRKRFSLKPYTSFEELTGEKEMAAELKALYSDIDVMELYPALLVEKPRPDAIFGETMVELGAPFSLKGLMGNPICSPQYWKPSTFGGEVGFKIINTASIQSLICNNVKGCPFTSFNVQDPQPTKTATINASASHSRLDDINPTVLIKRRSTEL
The note with it: in vivo.

Consider `CS(=O)(=O)Nc1ccc([N+](=O)[O-])cc1OC1CCCCC1` [NS398], for which the angiogenesis entry in data set [1] is recorded as “inhibit angiogenesis”.

Turning to `CC[C@H](C)C(=O)O[C@H]1C[C@@H](C)C=C2C=C[C@H](C)[C@H](CC[C@@H]3C[C@@H](O)CC(=O)O3)[C@H]21` [lovastatin], the “therapeutic value in prostate cancer” value in data set [2] is reported as “had therapeutic value in treating prostate cancer”.

`COc1cc(C2Oc3cc([C@H]4Oc5cc(O)cc(O)c5C(=O)[C@@H]4O)ccc3OC2CO)ccc1O` (stereo partly drawn) [silybinin]: in data set [3], the “COX-2 inhibition relative to COX-1 inhibition” value is given as “significant COX-2 inhibition relative to COX-1 inhibition”.
